Several values for one entry are separate records, joined by “and”; a condition that tells them apart may be missing. Equal entries are not always repeated.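 Method: 48-hour compound exposure of cells in 96-well plates, five concentrations, linear interpolation of endpoints. GI50 is the concentration that inhibits growth by half. TGI marks complete inhibition of growth.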
Key:
Assay in all cases: DTP human tumour cell line panel, 48 h
HT29 colon = system: HT29 colon
KM12 colon = system: KM12 colon
T-47D breast = system: T-47D breast
UACC-257 melanoma = system: UACC-257 melanoma
OVCAR-3 ovarian = system: OVCAR-3 ovarian
HS 578T breast = system: HS 578T breast
SK-MEL-28 melanoma = system: SK-MEL-28 melanoma
NCI-H226 lung = system: NCI-H226 lung
A549 NSCLC = system: A549 NSCLC
OVCAR-8 ovarian = system: OVCAR-8 ovarian

SMILES | GI50 (HT29 colon) | TGI (HT29 colon) | GI50 (KM12 colon) | TGI (KM12 colon) | GI50 (T-47D breast) | GI50 (UACC-257 melanoma) | TGI (UACC-257 melanoma) | GI50 (OVCAR-3 ovarian) | TGI (OVCAR-3 ovarian) | TGI (HS 578T breast) | GI50 (SK-MEL-28 melanoma) | TGI (SK-MEL-28 melanoma) | GI50 (NCI-H226 lung) | TGI (NCI-H226 lung) | TGI (A549 NSCLC) | TGI (OVCAR-8 ovarian) | TGI (T-47D breast) | GI50 (HS 578T breast) | GI50 (OVCAR-8 ovarian) | GI50 (A549 NSCLC)
CCc1c2c(nc3cc4c(cc13)OCO4)-c1cc3c(c(=O)n1C2)COC(=O)[C@]3(O)CC | 0.0537 µM | > 100 µM | 0.184 µM and 0.191 µM | > 100 µM | < 0.001 µM | 0.135 µM and 0.194 µM | 2.04 µM and 2.71 µM | 0.476 µM and 1.87 µM | > 100 µM | > 100 µM | 0.764 µM and 1.14 µM | > 100 µM | < 0.001 µM | 0.227 µM | 2.08 µM |  |  |  |  | 
O=c1[nH]c2ccccc2cc1C(Cl)=C(Cl)Cl |  | > 100 µM |  | > 100 µM |  |  | > 100 µM |  | > 100 µM |  |  | > 100 µM |  | > 100 µM | > 100 µM | > 100 µM |  |  |  | 
CCOC(=O)CC1=Nc2ccccc2SC1 |  | > 100 µM |  | > 100 µM |  |  | > 100 µM |  | > 100 µM |  |  | 2.73 µM |  | > 100 µM | > 100 µM | > 100 µM |  |  |  | 
COc1cc2c(c3c1C=CCO3)C(=O)c1ccccc1C2=O |  | > 100 µM |  | > 100 µM |  |  | 68.9 µM |  | > 100 µM |  |  | > 100 µM |  | 97.8 µM | > 100 µM | > 100 µM |  |  |  | 
CSc1nc(SC)c2c(CN=[N+]=[N-])c(Br)n(Cc3ccccc3)c2n1 |  | > 100 µM |  | > 100 µM |  |  |  |  | > 100 µM | > 100 µM |  | > 100 µM |  | > 100 µM | > 100 µM | > 100 µM | > 100 µM |  |  | 
C=CCSC[C@H](NC(=O)COc1ccccc1)C(=O)NC(C(=O)OCc1ccc([N+](=O)[O-])cc1)=C(C)C |  | > 100 µM |  | > 100 µM |  |  | > 100 µM |  | > 100 µM |  |  | > 100 µM |  | > 100 µM | > 100 µM | > 100 µM |  |  |  | 
C=C1C(O)C2CCC(C)(C)C(=O)C2=C(CC(C)C)C12CC2 (centres undefined) | 76.6 µM | > 100 µM | 47.1 µM | > 100 µM |  | 88 µM | > 100 µM | 34.7 µM | > 100 µM | 92.9 µM | 43.6 µM | > 100 µM | 43.5 µM | > 100 µM | > 100 µM | > 100 µM |  | 18.9 µM | > 100 µM | 93.3 µM
COc1cccc(/C=C/C(=O)c2cc3c(N)c(C(=O)Nc4ccccc4C)sc3nc2C)c1 | 1.11 µM | 2.58 µM | 1.27 µM | 3.62 µM | 1.15 µM | 1.21 µM | 3.75 µM | 1.13 µM | 2.44 µM | > 50 µM |  |  | 1.07 µM | 2.92 µM | 6.29 µM | > 50 µM | 3.63 µM | 1.63 µM | 1.26 µM | 1.53 µM
C=CC1=CSNN1 |  | > 100 µM |  | > 100 µM |  |  | > 100 µM |  | > 100 µM |  |  | > 100 µM |  |  | > 100 µM | > 100 µM |  |  |  | 
COc1c(C2CC(=O)Nc3c2cnn3Cc2ccco2)cc2c(c1OC)OCO2 (centres undefined) | 0.372 µM | > 100 µM | 0.439 µM | > 100 µM | 0.45 µM |  |  | 0.325 µM | 1.4 µM | > 100 µM |  | > 100 µM | 3.85 µM | > 100 µM | > 100 µM | > 100 µM | > 100 µM | 0.49 µM | 0.924 µM | 0.61 µM
COc1cc2c3c(cccc3c1)C(=O)N(CCN1CCCC1)C2=O | 1.79 µM | 20.2 µM | 2.88 µM | > 100 µM | 2.5 µM |  |  | 2.3 µM | 6.29 µM | 13 µM | 1.84 µM | 3.43 µM |  |  | 5.31 µM | > 100 µM | 8.76 µM | 3.98 µM | 1.66 µM | 1.91 µM
Cn1cc(NC(=O)c2cc(NC(=O)CCCCCCCCCCC(=O)Nc3cc(C(=O)Nc4cc(C(=O)NCCC(=N)N)n(C)c4)n(C)c3)cn2C)cc1C(=O)NCCC(=N)N |  | > 100 µM |  | > 100 µM |  |  | > 100 µM |  | > 100 µM |  |  |  |  | > 100 µM | > 100 µM | 53.5 µM |  |  |  | 
CSC1=NC=CCN1C |  | > 100 µM |  | > 100 µM |  |  | > 100 µM |  | > 100 µM |  |  | > 100 µM |  | > 100 µM | > 100 µM | > 100 µM |  |  |  | 
CCCCCCCCCCCCCCCC(=O)NCC(COP(=O)([O-])OCC[N+](C)(C)C)OCC (centres undefined) |  | 16.3 µM |  | 3.01 µM |  |  | 30.4 µM |  | 18.9 µM |  |  | 36.6 µM |  | 13.6 µM | 45.7 µM | 17.2 µM |  |  |  | 
O=C(Nc1cccc(-n2ccc3c(NC(=O)c4ccccc4)nccc32)c1)c1cccc(C(F)(F)F)c1 | 0.0332 µM | 0.388 µM | 0.0341 µM | 1.4 µM |  | 0.0804 µM | 19.9 µM | 0.0205 µM | 0.0463 µM | 3.28 µM | 0.0558 µM | 4.04 µM | 0.153 µM | > 68.6 µM | 2.61 µM | 2.43 µM |  | 0.0305 µM | 0.036 µM | 0.043 µM
C1COCCN1.C1COCCN1.N.N.[Cl-].[Pt+2] |  |  |  |  |  |  |  | > 100 µM | > 100 µM |  | > 100 µM | > 100 µM | > 100 µM | > 100 µM | > 100 µM | > 100 µM |  |  | > 100 µM | > 100 µM
CCCCCCCCCCCCC(=O)OC(c1cnco1)c1nc(C(O)CC(O)C(O)C(C)O)co1 (centres undefined) | 1.1 µM | > 100 µM | 0.359 µM | 21.9 µM |  | 5.16 µM | > 83 µM | 4.61 µM | > 100 µM |  | 0.686 µM | > 64.2 µM | 0.28 µM |  | > 100 µM | > 55.7 µM |  |  | 0.849 µM | 0.88 µM
N#CC1(c2nc3ccccc3o2)C(=O)C(=O)N(C2C3CC4CC(C3)CC2C4)C(=O)C1=O (centres undefined) |  | > 100 µM |  | > 100 µM |  |  | > 100 µM |  | > 100 µM |  |  | > 100 µM |  | > 100 µM | > 100 µM | > 100 µM |  |  |  | 
Cc1cc2c(cc1C)[n+](=O)c(C(=O)C/C(=N/NC(=O)c1ccccc1O)C(=O)Nc1ccccc1C(C)C)c(C)n2[O-] |  | > 100 µM |  | > 100 µM |  |  | > 100 µM |  | > 100 µM |  |  | > 100 µM |  | > 100 µM | > 100 µM | > 100 µM |  |  |  | 
